Assay results: patent US9499553B2 (CHUGAI SEIYAKU KABUSHIKI KAISHA, priority 2013, dated 2016)

molecular target: T1, human NaPi-IIb (Homo sapiens, UniProt O95436); experiment: Inhibitory effect on 33PO4 uptake into human NaPi-IIb-expressing CHO cells; type: cell-based; conditions: read-out: IC50
T1 construct: expressed in transfected cells
T1 sequence (O95436 1-690): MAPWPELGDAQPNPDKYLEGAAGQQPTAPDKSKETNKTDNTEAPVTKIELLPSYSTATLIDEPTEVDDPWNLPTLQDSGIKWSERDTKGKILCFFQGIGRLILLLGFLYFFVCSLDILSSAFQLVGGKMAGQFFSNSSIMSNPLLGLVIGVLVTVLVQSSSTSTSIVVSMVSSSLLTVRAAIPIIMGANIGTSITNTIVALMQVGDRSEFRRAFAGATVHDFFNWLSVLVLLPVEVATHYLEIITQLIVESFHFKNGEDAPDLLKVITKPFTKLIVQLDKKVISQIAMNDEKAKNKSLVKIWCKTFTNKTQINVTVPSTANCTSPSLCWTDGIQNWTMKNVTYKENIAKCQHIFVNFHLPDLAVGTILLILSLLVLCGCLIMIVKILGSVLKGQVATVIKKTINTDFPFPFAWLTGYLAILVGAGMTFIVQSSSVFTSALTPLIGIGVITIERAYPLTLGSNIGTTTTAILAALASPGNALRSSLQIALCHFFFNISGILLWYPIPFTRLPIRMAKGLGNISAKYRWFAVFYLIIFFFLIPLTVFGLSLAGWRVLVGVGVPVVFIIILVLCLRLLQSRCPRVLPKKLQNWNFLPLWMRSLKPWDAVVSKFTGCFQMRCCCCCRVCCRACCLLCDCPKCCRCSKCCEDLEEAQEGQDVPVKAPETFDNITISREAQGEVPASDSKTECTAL
Experimental: Test Example 2: Inhibitory Effect on PO4 Uptake into Human NaPi-IIb-Expressing Cell CHO cells were transfected with human NaPi-IIb expression plasmids, and a stably human NaPi-IIb-expressing cell line was obtained using G418. The human NaPi-IIb-expressing cells were inoculated to a 96-well plate and incubated overnight in a CO2 incubator. […] After a given time, a 1/20 volume of buffer A containing ^33PO4 was added thereto and reacted at room temperature. After washing with ice-cold buffer A, a liquid scintillator was added to each reaction mixture, and the amount of ^33PO4 uptake was measured using TopCount.

SMILES	IC50
COc1c(C#N)ncnc1-c1cc(C(F)(F)F)ccc1NC(=O)C1=C(O)[C@@]2(C)CCCN2N(Cc2cccc(F)c2F)C1=O [Example 25]	10.1 µM
CCCCCN1C(=O)C(C(=O)Nc2ccc(C(F)(F)F)cc2-c2ccc(C(F)(F)F)nc2)=C(O)[C@@]2(C)CCCN12 [Example 26]	2.2 µM
C[C@]12CCCN1N(Cc1cccc([N+](=O)[O-])c1)C(=O)C(C(=O)Nc1ccc(Br)c(F)c1)=C2O [Example 27]	9 µM
C[C@]12CCCN1N(Cc1cccc(F)c1F)C(=O)C(C(=O)Nc1ccc(Br)c(F)c1)=C2O [Example 28]	4.1 µM
C[C@]12CCCN1N(Cc1cccc(F)c1F)C(=O)C(C(=O)Nc1cc(F)c(Br)c(F)c1)=C2O [Example 29]	2 µM
CC1(C)CC[C@]2(C)C(O)=C(C(=O)Nc3cc(C(F)(F)F)ccc3-c3ccc(C(F)(F)F)nc3)C(=O)N(Cc3cccc(F)c3F)N12 [Example 63]	8.7 µM
COC(=O)c1cccc(-c2cc(C(F)(F)F)ccc2NC(=O)C2=C(O)[C@@]3(C)CCCN3N(Cc3cccc(F)c3F)C2=O)c1OC [Example 65]	16.2 µM
CCOc1cccc(-c2cc(C(F)(F)F)ccc2NC(=O)C2=C(O)[C@@]3(C)CCCN3N(Cc3cccc(F)c3F)C2=O)c1OC [Example 66]	17.3 µM
CN(C)S(=O)(=O)c1ccc(-c2cc(C(F)(F)F)ccc2NC(=O)C2=C(O)[C@@]3(C)CCCN3N(Cc3cccc(F)c3F)C2=O)s1 [Example 71]	7.8 µM
C[C@]12CCCN1N(Cc1cccc(F)c1F)C(=O)C(C(=O)Nc1ccc(Cl)cc1F)=C2O [Example 76]	6.6 µM
C[C@]12CCCN1N(Cc1cccc(F)c1F)C(=O)C(C(=O)Nc1ccc(Br)cc1)=C2O [Example 77]	8.9 µM
C[C@]12CCCN1N(Cc1cccc(F)c1F)C(=O)C(C(=O)Nc1ccc(Br)cn1)=C2O [Example 78]	5.2 µM
C[C@]12CCCN1N(Cc1cccc(F)c1F)C(=O)C(C(=O)Nc1ccc(Cl)cn1)=C2O [Example 79]	6.7 µM
CN(C)S(=O)(=O)c1ccc(-c2nc(C(F)(F)F)ccc2NC(=O)C2=C(O)[C@@]3(C)CCCN3N(Cc3cccc(F)c3F)C2=O)cc1 [Example 87]	8.3 µM
COCCOc1cc(NC(=O)C2=C(O)[C@@]3(C)CCCN3N(Cc3cccc(F)c3F)C2=O)c(-c2cccc(OC)c2OC)cc1C(F)(F)F [Example 92]	20.2 µM
C[C@]12CCCN1N(Cc1ccc(OCCN3CCOCC3)c(F)c1F)C(=O)C(C(=O)Nc1ccc(Cl)cc1-c1ccc(C(F)(F)F)nc1)=C2O [Example 102]	10.9 µM
CSc1ccc(-c2cc(C(F)(F)F)ccc2NC(=O)C2=C(O)[C@@]3(C)CCCN3N(Cc3ccc(OCCN4CCOCC4)c(F)c3F)C2=O)cn1 [Example 103]	11 µM
CSc1ncc(-c2cc(C(F)(F)F)ccc2NC(=O)C2=C(O)[C@@]3(C)CCCN3N(Cc3ccc(OCCN4CCOCC4)c(F)c3F)C2=O)cn1 [Example 104]	10.8 µM
CSc1ccc(-c2nc(C(F)(F)F)ccc2NC(=O)C2=C(O)[C@@]3(C)CCCN3N(Cc3cccc(F)c3F)C2=O)cn1 [Example 105]	6.3 µM
C[C@]12CCCN1N(Cc1ccc(OCCN3CCOCC3)c(F)c1F)C(=O)C(C(=O)Nc1ccc(C(F)(F)F)nc1-c1cncc(C(F)(F)F)c1)=C2O [Example 106]	12 µM
C[C@@]12CCCN1N(Cc1ccc(OCCN3CCOCC3)c(F)c1F)C(=O)C(C(=O)Nc1ccc(Cl)cc1-c1cc(C(F)(F)F)ncn1)=C2O [Example 107]	25.9 µM
C[C@@]12CCCN1N(Cc1ccc(OCCN3CCOCC3)c(F)c1F)C(=O)C(C(=O)Nc1ccc(C(F)(F)F)cc1-c1cc(C(F)(F)F)ncn1)=C2O [Example 108]	26.1 µM

Other lines, results leading:

IC50	SMILES
6.9 µM	C[C@]12CCCN1N(Cc1cccc(F)c1F)C(=O)C(C(=O)Nc1ccc(C(F)(F)F)cc1-c1ncnc(C#N)c1Cl)=C2O [Example 23]
8.1 µM	Cc1c(C#N)ncnc1-c1cc(C(F)(F)F)ccc1NC(=O)C1=C(O)[C@@]2(C)CCCN2N(Cc2cccc(F)c2F)C1=O [Example 24]
6.5 µM	C[C@]12CCCN1N(Cc1cccc(F)c1F)C(=O)C(C(=O)Nc1ccc(Br)cc1-c1cc(C(F)(F)F)ncn1)=C2O [Example 64]
2 µM	C[C@]12CCCN1N(Cc1cccc(F)c1F)C(=O)C(C(=O)Nc1ccc(C(F)(F)F)cc1-c1cnc(Cl)nc1)=C2O [Example 67]
2.6 µM	C[C@]12CCCN1N(Cc1cccc(F)c1F)C(=O)C(C(=O)Nc1ccc(C(F)(F)F)cc1-c1cnc(Cl)c(C#N)c1)=C2O [Example 68, (4aR)—N-[2-(6-Chloro-5-cyanopyridin-3-yl)-4-(trifluoromethyl)phenyl]-1-[(2,3-difluorophenyl)methyl]-4-hydroxy-4a-methyl-2-oxo-6,7-dihydro-5H-pyrrolo[1,2-b]pyridazine-3-carboxamide]
8.9 µM	Cc1c(Cl)ncnc1-c1cc(C(F)(F)F)ccc1NC(=O)C1=C(O)[C@@]2(C)CCCN2N(Cc2cccc(F)c2F)C1=O [Example 69]
8.4 µM	C[C@]12CCCN1N(Cc1cccc(F)c1F)C(=O)C(C(=O)Nc1ccc(C(F)(F)F)cc1-c1ncnc(Cl)c1Cl)=C2O [Example 70]
8.3 µM	COc1ncc(-c2cc(C(F)(F)F)ccc2NC(=O)C2=C(O)[C@@]3(C)CCCN3N(Cc3cccc(F)c3F)C2=O)c(OC)n1 [Example 72]
2.3 µM	C[C@]12CCCN1N(Cc1cccc(F)c1F)C(=O)C(C(=O)Nc1ccc(C(F)(F)F)cc1-c1cnc(Br)cn1)=C2O [Example 73]
4.1 µM	C[C@]12CCCN1N(Cc1cccc(F)c1F)C(=O)C(C(=O)Nc1ccc(C(F)(F)F)cc1-c1cnc(Cl)cn1)=C2O [Example 74]
12.5 µM	COc1cc(C)c(-c2cc(C(F)(F)F)ccc2NC(=O)C2=C(O)[C@@]3(C)CCCN3N(Cc3cccc(F)c3F)C2=O)cn1 [Example 80]
17.5 µM	COc1cncc(-c2cc(C(F)(F)F)ccc2NC(=O)C2=C(O)[C@@]3(C)CCCN3N(Cc3cccc(F)c3F)C2=O)c1 [Example 81]
11.1 µM	C[C@]12CCCN1N(Cc1cccc(F)c1F)C(=O)C(C(=O)Nc1ccc(C(F)(F)F)cc1-c1cncc(C#N)c1)=C2O [Example 82]
10.6 µM	C[C@]12CCCN1N(Cc1cccc(F)c1F)C(=O)C(C(=O)Nc1ccc(C(F)(F)F)cc1-c1cnc3ccccc3c1)=C2O [Example 83]
7.9 µM	C[C@]12CCCN1N(Cc1cccc(F)c1F)C(=O)C(C(=O)Nc1ccc(C(F)(F)F)cc1-c1cc(Cl)cnc1Cl)=C2O [Example 84]
6.2 µM	C[C@]12CCCN1N(Cc1cccc(F)c1F)C(=O)C(C(=O)Nc1ccc(C(F)(F)F)cc1-c1ccc(C(F)(F)F)nc1Br)=C2O [Example 85]
5.3 µM	C[C@]12CCCN1N(Cc1cccc(F)c1F)C(=O)C(C(=O)Nc1ccc(Cl)cc1-c1ccc(C(F)(F)F)nc1)=C2O [Example 86]
4.8 µM	C[C@]12CCCN1N(Cc1cccc(F)c1F)C(=O)C(C(=O)Nc1ccc(C(F)(F)F)cc1)=C2O [Example 89]
2.4 µM	C[C@]12CCCN1N(Cc1cccc(F)c1F)C(=O)C(C(=O)Nc1ccc(C(F)(F)F)cc1-c1ccc(C(F)(F)F)nc1)=C2O [Example 90]
15.7 µM	C[C@]12CCCN1N(Cc1cccc(F)c1F)C(=O)C(C(=O)Nc1ccc(C(F)(F)F)cc1-c1cncc(C(F)(F)F)c1)=C2O [Example 91]
17.4 µM	COc1cccc(-c2cc(C(F)(F)F)ccc2NC(=O)C2=C(O)[C@@]3(C)CCCN3N(Cc3cccc(F)c3F)C2=O)n1 [Example 93]
4.3 µM	C[C@]12CCCN1N(Cc1cccc(F)c1F)C(=O)C(C(=O)Nc1ccc(C(F)(F)F)cc1-c1cnc(C#N)c([N+](=O)[O-])c1)=C2O [Example 99, (4aR)—N-[2-(6-Cyano-5-nitropyridin-3-yl)-4-(trifluoromethyl)phenyl]-1-[(2,3-difluorophenyl)methyl]-4-hydroxy-4a-methyl-2-oxo-6,7-dihydro-5H-pyrrolo[1,2-b]pyridazine-3-carboxamide]
6.7 µM	C[C@]12CCCN1N(Cc1cccc(F)c1F)C(=O)C(C(=O)Nc1ccc(C(F)(F)F)cc1-c1cc(C#N)ncn1)=C2O [Example 100]
9.4 µM	Cc1cc(-c2cc(C(F)(F)F)ccc2NC(=O)C2=C(O)[C@@]3(C)CCCN3N(Cc3cccc(F)c3F)C2=O)cnc1C#N [Example 101]
9.4 µM	Cc1ncc(-c2cc(C(F)(F)F)ccc2NC(=O)C2=C(O)[C@@]3(C)CCCN3N(Cc3cccc(F)c3F)C2=O)cc1C#N [Example 109, (4aR)—N-[2-(5-Cyano-6-methylpyridin-3-yl)-4-(trifluoromethyl)phenyl]-1-[(2,3-difluorophenyl)methyl]-4-hydroxy-4a-methyl-2-oxo-6,7-dihydro-5H-pyrrolo[1,2-b]pyridazine-3-carboxamide]
